Numbers after ± are expanded uncertainties.
Assay: activity coefficient (dimensionless); of the first substance listed, at infinite dilution; xn = mol fraction of the nth substance listed
Settings: 100 kPa, Liquid, Chromatography, x1 = 0

Row | Compound | activity coefficient (318.15 K) | activity coefficient (328.15 K) | activity coefficient (338.15 K) | activity coefficient (348.15 K) | activity coefficient (358.15 K) | activity coefficient (368.15 K) | activity coefficient (378.15 K) | activity coefficient (308.15 K) | activity coefficient (388.15 K) | activity coefficient (398.15 K) | activity coefficient (408.15 K)
1 | CC(C)=O [acetone] + CC(O)C(=O)[O-].CC[N+]1(C)CCCC1 | 1.93 ± 0.17 | 1.97 ± 0.17 | 2.03 ± 0.18 | 2.08 ± 0.18 | 2.14 ± 0.18 | 2.21 ± 0.19 | – | – | – | – | –
2 | CCCOCCC [dipropyl ether] + CC(O)C(=O)[O-].CC[N+]1(C)CCCC1 | 50.3 ± 4.4 | 48.2 ± 4.2 | 46.2 ± 4 | 44.8 ± 3.9 | 43.2 ± 3.7 | 41.9 ± 3.6 | – | 52.1 ± 4.5 | – | – | –
3 | CCC(C)CC [3-methylpentane] + CC(O)C(=O)[O-].CC[N+]1(C)CCCC1 | 111 ± 10 | 102 ± 9 | 94.5 ± 8.2 | 88.7 ± 7.7 | 83.5 ± 7.2 | 78.4 ± 6.8 | – | 122 ± 11 | – | – | –
4 | CCCC(=O)CC [3-hexanone] + CC(O)C(=O)[O-].CC[N+]1(C)CCCC1 | 8.06 ± 0.7 | 8.06 ± 0.7 | 8.12 ± 0.7 | 8.19 ± 0.71 | 8.25 ± 0.71 | 8.4 ± 0.73 | – | – | – | – | –
5 | Cc1ccc(C)cc1 [1,4-dimethylbenzene] + CC(O)C(=O)[O-].CC[N+]1(C)CCCC1 | 10 ± 0.9 | 10.1 ± 0.9 | 10.3 ± 0.9 | 10.4 ± 0.9 | 10.5 ± 0.9 | 10.7 ± 0.9 | – | – | – | – | –
6 | C1CCCCCC1 [cycloheptane] + CC(O)C(=O)[O-].CC[N+]1(C)CCCC1 | 64.6 ± 5.6 | 60.3 ± 5.2 | 57 ± 4.9 | 53.8 ± 4.7 | 51 ± 4.4 | 47.8 ± 4.1 | – | 69.7 ± 6 | – | – | –
7 | COC(C)(C)C [2-methoxy-2-methylpropane] + CC(O)C(=O)[O-].CC[N+]1(C)CCCC1 | 18 ± 1.6 | 17.9 ± 1.5 | 17.9 ± 1.5 | 17.8 ± 1.5 | 17.7 ± 1.5 | 17.7 ± 1.5 | – | 18.1 ± 1.6 | – | – | –
8 | C#CCCC [1-pentyne] + CC(O)C(=O)[O-].CC[N+]1(C)CCCC1 | 3.43 ± 0.3 | 3.66 ± 0.32 | 3.95 ± 0.34 | 4.2 ± 0.4 | 4.46 ± 0.38 | 4.69 ± 0.4 | – | 3.18 ± 0.27 | – | – | –
9 | CCC[N+](=O)[O-] [1-nitropropane] + CC(O)C(=O)[O-].CC[N+]1(C)CCCC1 | 1.75 ± 0.15 | 1.8 ± 0.15 | 1.86 ± 0.16 | 1.92 ± 0.16 | 1.98 ± 0.17 | 2.06 ± 0.18 | – | – | – | – | –
10 | CCC(C)(C)OC [2-methoxy-2-methylbutane] + CC(O)C(=O)[O-].CC[N+]1(C)CCCC1 | 27.8 ± 2.4 | 27.3 ± 2.4 | 26.8 ± 2.3 | 26.3 ± 2.3 | 26.1 ± 2.3 | 25.8 ± 2.2 | – | 27.9 ± 2.4 | – | – | –
11 | C1CCCC1 [cyclopentane] + CC(O)C(=O)[O-].CC[N+]1(C)CCCC1 | 29.7 ± 2.6 | 28.2 ± 2.4 | 26.9 ± 2.3 | 25.7 ± 2.2 | 24.7 ± 2.1 | 23.5 ± 2 | – | 31.7 ± 2.7 | – | – | –
12 | C=CCCCCC [1-heptene] + CC(O)C(=O)[O-].CC[N+]1(C)CCCC1 | 83.8 ± 7.3 | 78.7 ± 6.8 | 75.2 ± 6.5 | 71.9 ± 6.2 | 68.8 ± 6 | 66.4 ± 5.7 | – | 88.8 ± 7.7 | – | – | –
13 | CCc1ccccc1 [ethylbenzene] + CC(O)C(=O)[O-].CC[N+]1(C)CCCC1 | 9.27 ± 0.8 | 9.36 ± 0.81 | 9.45 ± 0.82 | 9.58 ± 0.83 | 9.68 ± 0.84 | 9.86 ± 0.85 | – | – | – | – | –
14 | C1CCCCC1 [cyclohexane] + CC(O)C(=O)[O-].CC[N+]1(C)CCCC1 | 48.6 ± 4.2 | 45 ± 3.9 | 42.6 ± 3.7 | 40.6 ± 3.5 | 38.4 ± 3.3 | 36.3 ± 3.1 | – | 52.7 ± 4.6 | – | – | –
15 | CCOC(C)=O [ethyl acetate] + CC(O)C(=O)[O-].CC[N+]1(C)CCCC1 | 5.04 ± 0.43 | 5.14 ± 0.44 | 5.23 ± 0.45 | 5.32 ± 0.46 | 5.43 ± 0.47 | 5.56 ± 0.48 | 5.66 ± 0.49 | – | – | – | –
16 | CCCCCCCCCC [decane] + CC(O)C(=O)[O-].CC[N+]1(C)CCCC1 | 725 ± 63 | 651 ± 57 | 597 ± 52 | 542 ± 47 | 496 ± 43 | 456 ± 40 | – | 787 ± 68 | – | – | –
17 | C=CCCCC [hex-1-ene] + CC(O)C(=O)[O-].CC[N+]1(C)CCCC1 | 53.3 ± 4.6 | 50.9 ± 4.4 | 48.7 ± 4.2 | 46.6 ± 4 | 44.7 ± 3.9 | 42.9 ± 3.7 | – | 56 ± 4.8 | – | – | –
18 | CCO [ethanol] + CC(O)C(=O)[O-].CC[N+]1(C)CCCC1 | – | – | – | – | 0.174 ± 0.03 | 0.187 ± 0.03 | 0.201 ± 0.031 | – | 0.219 ± 0.031 | 0.234 ± 0.032 | 0.255 ± 0.033
19 | CCCCCCC [heptane] + CC(O)C(=O)[O-].CC[N+]1(C)CCCC1 | 196 ± 17 | 180 ± 16 | 167 ± 14 | 154 ± 13 | 144 ± 12 | 133 ± 12 | – | 213 ± 18 | – | – | –
20 | c1ccccc1 [benzene] + CC(O)C(=O)[O-].CC[N+]1(C)CCCC1 | 2.85 ± 0.25 | 2.94 ± 0.25 | 3.04 ± 0.26 | 3.14 ± 0.27 | 3.24 ± 0.28 | 3.36 ± 0.29 | – | – | – | – | –
21 | C1CCCCCCC1 [cyclooctane] + CC(O)C(=O)[O-].CC[N+]1(C)CCCC1 | 88.7 ± 7.7 | 82.1 ± 7.1 | 77.2 ± 6.7 | 72.6 ± 6.3 | 68 ± 5.9 | 63.9 ± 5.5 | – | 95.8 ± 8.3 | – | – | –
22 | Cc1ccccc1C [1,2-dimethylbenzene] + CC(O)C(=O)[O-].CC[N+]1(C)CCCC1 | 8.23 ± 0.71 | 8.33 ± 0.72 | 8.46 ± 0.73 | 8.57 ± 0.74 | 8.69 ± 0.75 | 8.9 ± 0.8 | – | – | – | – | –

Other lines, results leading:

Row | activity coefficient (318.15 K) | activity coefficient (328.15 K) | activity coefficient (338.15 K) | activity coefficient (348.15 K) | activity coefficient (358.15 K) | activity coefficient (368.15 K) | activity coefficient (378.15 K) | activity coefficient (308.15 K) | activity coefficient (388.15 K) | activity coefficient (398.15 K) | activity coefficient (408.15 K) | Compound
23 | 7.46 ± 0.64 | 7.56 ± 0.65 | 7.6 ± 0.66 | 7.74 ± 0.67 | 7.84 ± 0.68 | 8.01 ± 0.69 | 8.08 ± 0.7 | – | – | – | – | CCCC(=O)OC [methyl butanoate] + CC(O)C(=O)[O-].CC[N+]1(C)CCCC1
24 | 307 ± 27 | 275 ± 24 | 254 ± 22 | 236 ± 20 | 217 ± 19 | 200 ± 17 | – | 334 ± 29 | – | – | – | CCCCCCCC [octane] + CC(O)C(=O)[O-].CC[N+]1(C)CCCC1
25 | 80.7 ± 7 | 75 ± 6.5 | 69.7 ± 6 | 65.7 ± 5.7 | 61.8 ± 5.3 | 57.8 ± 5 | – | 87.4 ± 7.6 | – | – | – | CC1CCCCC1 [methylcyclohexane] + CC(O)C(=O)[O-].CC[N+]1(C)CCCC1
26 | 2.95 ± 0.25 | 3.03 ± 0.26 | 3.1 ± 0.27 | 3.18 ± 0.27 | 3.25 ± 0.28 | 3.37 ± 0.29 | 3.45 ± 0.3 | – | – | – | – | COC(C)=O [methyl ethanoate] + CC(O)C(=O)[O-].CC[N+]1(C)CCCC1
27 | – | – | – | – | – | 0.046 | 0.052 | – | 0.059 | 0.066 ± 0.03 | 0.072 ± 0.03 | O [water] + CC(O)C(=O)[O-].CC[N+]1(C)CCCC1
28 | 4.7 ± 0.41 | 4.78 ± 0.41 | 4.85 ± 0.42 | 4.93 ± 0.43 | 5.01 ± 0.43 | 5.14 ± 0.44 | – | – | – | – | – | CCCC(C)=O [pentan-2-one] + CC(O)C(=O)[O-].CC[N+]1(C)CCCC1
29 | – | – | – | – | 0.236 ± 0.032 | 0.256 ± 0.033 | 0.277 ± 0.034 | – | 0.302 ± 0.035 | 0.327 ± 0.036 | 0.349 ± 0.037 | CCCO [propan-1-ol] + CC(O)C(=O)[O-].CC[N+]1(C)CCCC1
30 | 3.54 ± 0.31 | 3.59 ± 0.31 | 3.62 ± 0.31 | 3.68 ± 0.32 | 3.74 ± 0.32 | 3.82 ± 0.33 | – | 3.51 ± 0.3 | – | – | – | C1CCOC1 [tetrahydrofuran] + CC(O)C(=O)[O-].CC[N+]1(C)CCCC1
31 | 125 ± 11 | 114 ± 10 | 107 ± 9 | 99.9 ± 8.7 | 94.6 ± 8.2 | 88.7 ± 7.7 | – | 135 ± 12 | – | – | – | CCCCCC [hexane] + CC(O)C(=O)[O-].CC[N+]1(C)CCCC1
32 | 136 ± 12 | 127 ± 11 | 120 ± 10 | 114 ± 10 | 108 ± 9 | 103 ± 9 | – | 145 ± 13 | – | – | – | C=CCCCCCC [oct-1-ene] + CC(O)C(=O)[O-].CC[N+]1(C)CCCC1
33 | 4.71 ± 0.41 | 4.79 ± 0.41 | 4.88 ± 0.42 | 4.97 ± 0.43 | 5.06 ± 0.44 | 5.22 ± 0.45 | 5.32 ± 0.46 | – | – | – | – | CCC(=O)OC [methyl propanoate] + CC(O)C(=O)[O-].CC[N+]1(C)CCCC1
